One assay concerns 5-HT4 receptor subtype. The note with it: mouse embryonic colliculi neurons; cited from earlier work.
The subject of a further assay is 5-HT4 receptors. The following applies: cited from earlier work.
The subject of assay [1] is gastric emptying of solid meals. Kind of assay: Canine gastric emptying in vivo model, alpha-2 adrenergic model of gastroparesis, solid meal. Set-up: species or system dog. The following applies: % emptied, treated, emptying delayed by alpha-2 adrenergic agonist.
The target in the next assay is T1, 5-HT3 receptors (Mus musculus, UniProt P23979).
T1 construct: endogenous in cells; host or cells: NG108-15 neuroblastoma cells (membranes)
T1 sequence (P23979 24-489): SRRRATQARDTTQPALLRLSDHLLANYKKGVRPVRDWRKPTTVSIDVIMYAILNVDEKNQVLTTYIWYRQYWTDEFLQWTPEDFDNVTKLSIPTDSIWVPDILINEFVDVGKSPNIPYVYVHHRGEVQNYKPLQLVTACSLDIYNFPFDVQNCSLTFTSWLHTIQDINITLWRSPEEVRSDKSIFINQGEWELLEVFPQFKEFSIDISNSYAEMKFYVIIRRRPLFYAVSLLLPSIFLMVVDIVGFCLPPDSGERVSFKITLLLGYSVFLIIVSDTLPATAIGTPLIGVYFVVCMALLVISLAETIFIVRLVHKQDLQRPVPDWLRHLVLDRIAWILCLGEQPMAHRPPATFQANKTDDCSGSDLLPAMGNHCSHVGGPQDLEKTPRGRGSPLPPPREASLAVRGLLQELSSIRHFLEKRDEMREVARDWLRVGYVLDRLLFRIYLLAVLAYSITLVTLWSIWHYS
In words: Serotonin 5-HT3 receptor binding assay, [3H]GR65630, NG108-15 membranes. The note with it: for Ki: Ki (5-HT3 receptors), [3H]GR65630 1 nM, apparent Ki calculated from IC50. As for the experimental part: Preparation of Membrane Suspensions
NG108-15 neuroblastoma cells were cultured at 37° C. in closed culture flasks for 3-4 days or to confluence (6-16×10^6 cells/flask). […] The cells were centrifuged at 900×g for five minutes at 4° C. At this point the cells could be frozen. The (frozen or freshly prepared) pellets from each flask were suspended in 4 ml buffer and homogenized a second time as above. The resulting supernatant was used for radioligand binding studies.
To each well of a microtiter plate were added 100 μl tissue, 50 μl [^3 H]GR65630 (4 nM stock, SA=64 Ci/mmol from Dupont/NEN) and 50 μl drugs. Nonspecific binding was measured in the presence of 10 μM zacopride. Reactions were incubated for 45-60 minutes at 25° C. followed by filtration under reduced pressure through GF/B-type filters with the aid of either a Brandel or Skatron macro harvester. The filters were washed with ice-cold buffer (a 6 sec wash time on the Skatron harvester, using filters presoaked with polyethylenimine) and specific binding was measured by either a Packard CA 1900 or an LKB Betaplate counter. […] IC50 values were determined for test drugs, and Ki values calculated from the equation: […]

Assay [2] deals with GI transit. The following applies: man; cited from earlier work.
The test system of assay [3] is GI transit. The following applies: man; cited from earlier work. This is another data set of the same source.
Assay [4] concerns guinea pig stomach muscle strip. The note with it: cited from earlier work.
Assay [5] relates to gastric emptying. The following applies: in vivo; cited from earlier work.
Assay [6] deals with gastric emptying. The note with it: cited from earlier work.
The next assay deals with antroduodenal motility. The following applies: coadministered with cisapride; dogs; cited from earlier work.
Assay [7] relates to transit of a charcoal meal. The note with it: mouse, in vivo; cited from earlier work.
Assay [8] deals with peristalsis in the GI tract. The following applies: various animal models; cited from earlier work.
In assay [9] the test system is 5-HT3-mediated Bezold Jarisch reflex. The following applies: in vivo; cited from earlier work.
Assay [10] relates to guinea pig stomach strips. The following applies: cited from earlier work.

Counter-ions that a name gives are not always drawn.

Regarding `COc1cc(N)c(Cl)cc1C(=O)NC1CCN2CCCC1C2` (stereo not shown) [BRL-24924], the “correlation of prokinetic activity with 5-HT4 agonist activity” value in the assay with 5-HT4 receptor subtype is on record as “correlate with agonist activity at a novel 5-HT4 receptor subtype”. Besides, in the assay with 5-HT4 receptors, the “receptor mediating the peristaltic reflex” value is listed as “mediated through agonism at 5-HT4 receptors”.
`COc1cc(N)c(Cl)cc1C(=O)NC1CCN(CCCOc2ccc(F)cc2)CC1OC` (stereo not shown) [Cisapride]: the “correlation of prokinetic activity with 5-HT4 agonist activity” value in the assay with 5-HT4 receptor subtype is “correlate with agonist activity at a novel 5-HT4 receptor subtype”. Further, the “Canine Solid Gastric Emptying (% Control to Treat)” value in assay [1] (control 23.2%, at 0.3 mg/kg IG) came out at 36.6%.
Consider `COc1cc(N)c(Cl)cc1C(=O)NCC1C2CC3CC1CN(C3)C2` (stereo not drawn) [Example 2, Endo-4-amino-N-(1-azacyclo[3.3.1.1^3,7]decan-4-ylmethyl)-5-chloro-2-methoxybenzamide hydrochloride], for which the Ki on 5-HT3 receptors (NG108-15 membranes, 25° C.) was 0.144 µM.
On to `COc1cc(N)c(Cl)cc1C(=O)NCC1C2CC3CC1CN(C3)C2` (stereo not drawn) [Example 4, Exo-4-amino-N-(1-azacyclo[3.3.1.1^3,7]decan-4-ylmethyl)-5-chloro-2-methoxybenzamide, hydrochloride], for which, in assay [1] (control 20.2%, at 0.3 mg/kg IV), the “Canine Solid Gastric Emptying (% Control to Treat)” value was found to be 35.1%. Besides, the Ki on 5-HT3 receptors (NG108-15 membranes, 25° C.) is 0.0257 µM.
For the compound `Cc1nccn1CC1CCc2c(c3ccccc3n2C)C1=O` (stereo not shown) [GR38032], the “small intestinal transit times or mouth-to-cecum transit times” value in the assay with GI transit [2] is listed as “did not alter small intestinal transit times or mouth-to-cecumtransit times”. In the assay on GI transit [3], the GI transit entry is “failed to accelerate GI transit” and the colonic transit result is “slowed colonic transit in man”.
Consider `CN1[C@@H]2CC[C@H]1C[C@@H](OC(=O)c1c[nH]c3ccccc13)C2` [ICS-205930], for which, in assay [4], the “guinea pig stomach muscle strip contraction in vitro” value is “enhanced guinea pig stomach muscle strip contraction in vitro”. In addition, the gastric emptying entry in the assay with gastric emptying [5] is “enhanced gastric emptying”. Also, in the assay on gastric emptying [6], the “gastric emptying rates in vivo” value is on record as “increases in gastric emptying rates in vivo”. The “effect on the responses to cisapride” value in the assay on antroduodenal motility is given as “did not affect the responses to cisapride”.
`CN1[C@@H]2CC[C@H]1C[C@@H](OC(=O)c1cc(Cl)cc(Cl)c1)C2` [MDL 72222]: the “guinea pig stomach muscle strip contraction in vitro” value in assay [4] was “enhanced guinea pig stomach muscle strip contraction in vitro”. Also, in the assay on gastric emptying [6], the “gastric emptying rates in vivo” value is “increases in gastric emptying rates in vivo”.
Turning to `Cc1nccn1CC1CCc2c(c3ccccc3n2C)C1=O.Cl.O.O` (stereo not shown) [SN-307], the “transit of a charcoal meal in mice” value in [7] is given as “enhanced transit of a charcoal meal in mice”.
`NCCc1c[nH]c2ccc(O)cc12` [Serotonin, 5-hydroxytryptamine]: the “peristalsis in the GI tract” value in assay [8] is recorded as “promote peristalsis in the GI tract”. Besides, the “receptor mediating the peristaltic reflex” value in the assay on 5-HT4 receptors was “mediated through agonism at 5-HT4 receptors”.
By Kd is commonly meant the concentration at which binding is half-saturated. Turning to `Cc1nc[nH]c1CCC(=O)c1cn(C)c2ccccc12` [[^3 H]GR65630], the dissociation constant Kd at 5-HT3 receptors turned out to be 0.0015 µM. The compound also returned a Bmax on 5-HT3 receptors (radioligand, NG108-15 membranes, 25° C.) of 195 fmole/mg protein.
As for `CCN(CC)CCNC(=O)c1cc(Cl)c(N)cc1OC` [metoclopramide], the “5-HT3-mediated Bezold Jarisch reflex” value in assay [9] is given as “blocks the 5-HT3 -mediated Bezold Jarisch reflex”. For the same compound, the “electrical-field stimulated contractions in guinea pig stomach strips” value in assay [10] is “enhanced electrical-field stimulated contractions”. Besides, the “guinea pig stomach muscle strip contraction in vitro” value in [4] is given as “enhanced guinea pig stomach muscle strip contraction in vitro”. In addition, the “gastric emptying rates in vivo” value in the assay with gastric emptying [6] is listed as “increases in gastric emptying rates in vivo”.

The values are drawn from patent US5643917A, “4-aminomethyl-1-azaadamantane derived benzamides” (priority 1995, dated 1997).
